Data: patent publication US7829589B2, “Sulfonamide compounds and uses thereof” (Elixir Pharmaceuticals, Inc., priority 2005, dated 2010)
pKi: −log10 of the molar value.

Target: GHS-R (Homo sapiens, UniProt Q92847)
Test: GHS-R antagonist activity (Ki) in a cell based assay
In short: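 Transfected COS-7 cells were labelled 24 h with [^3H]-myo-inositol and preincubated 30 min at 37 °C in HEPES buffer pH 7.4 with 10 mM LiCl, optionally with 1 U/ml adenosine deaminase. Compound was applied for 45 min at 37 °C. [^3H]-inositol phosphates were extracted with perchloric acid and isolated by anion-exchange resin.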

GHS-R, sequence (Q92847 whole entry, species assumed): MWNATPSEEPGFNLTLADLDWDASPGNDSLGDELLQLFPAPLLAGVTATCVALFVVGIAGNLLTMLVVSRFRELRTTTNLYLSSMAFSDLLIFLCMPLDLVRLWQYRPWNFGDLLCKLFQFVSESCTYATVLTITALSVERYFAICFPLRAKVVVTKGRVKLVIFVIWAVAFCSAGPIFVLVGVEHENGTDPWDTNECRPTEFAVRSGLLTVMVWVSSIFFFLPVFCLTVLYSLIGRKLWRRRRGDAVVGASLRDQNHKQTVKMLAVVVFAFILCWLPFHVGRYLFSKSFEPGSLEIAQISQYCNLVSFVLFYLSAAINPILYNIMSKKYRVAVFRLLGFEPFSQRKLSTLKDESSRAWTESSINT

Row | SMILES | pKi
1 | CCN(CC)CCCS(=O)(=O)N[C@H](CCc1ccccc1)c1nc(Cc2ccc(C(F)(F)F)cc2)no1 [Compound 117, 3-Diethylamino-propane-1-sulfonic acid {(R)-3-phenyl-1-[3-(4-trifluoromethyl-benzyl)-[1,2,4]oxadiazol-5-yl]-propyl}-amide] | > 7.00
2 | CCN(CC)CCCS(=O)(=O)N[C@H](CCc1ccccc1)c1nc(-c2cccc3[nH]ccc23)n[nH]1 [Compound 118, 3-Diethylamino-propane-1-sulfonic acid {(R)-1-[5-(1H-indol-4-yl)-2H-[1,2,4]triazol-3-yl]-3-phenyl-propyl}-amide] | > 7.00
3 | CCN(CC)CCCS(=O)(=O)N[C@H](Cc1ccccc1)c1nc(-c2ccc(OC)cc2)n[nH]1 [Compound 119, 3-Diethylamino-propane-1-sulfonic acid {(R)-1-[5-(4-methoxy-phenyl)-2H-[1,2,4]triazol-3-yl]-2-phenyl-ethyl}-amide] | 6.30 to 7.00
4 | CCN(CC)CCCS(=O)(=O)N[C@H](CCc1ccccc1)c1nc(-c2ccc(O)cc2)n[nH]1 [Compound 120, 3-Diethylamino-propane-1-sulfonic acid {(R)-1-[5-(4-hydroxy-phenyl)-2H-[1,2,4]triazol-3-yl]-3-phenyl-propyl}-amide] | > 7.00
5 | CCN(CC)CCCS(=O)(=O)N[C@H](CCc1ccccc1)c1nc(-c2cccc(O)c2)n[nH]1 [Compound 121, 3-Diethylamino-propane-1-sulfonic acid {(R)-1-[5-(3-hydroxy-phenyl)-2H-[1,2,4]triazol-3-yl]-3-phenyl-propyl}-amide] | > 7.00
6 | CCN(CC)CCCS(=O)(=O)N[C@H](CCc1ccccc1)c1nc(Cc2ccsc2)n[nH]1 [Compound 122, 3-Diethylamino-propane-1-sulfonic acid [(R)-3-phenyl-1-(5-thiophen-3-ylmethyl-2H-[1,2,4]triazol-3-yl)-propyl]-amide] | > 7.00
7 | CCN(CC)CCCS(=O)(=O)N[C@H](CCc1ccccc1)c1nc(-c2cccc(SC)c2)n[nH]1 [Compound 123, 3-Diethylamino-propane-1-sulfonic acid {(R)-1-[5-(3-methylsulfanyl-phenyl)-2H-[1,2,4]triazol-3-yl]-3-phenyl-propyl}-amide] | > 7.00
8 | CCN(CC)CCCS(=O)(=O)N[C@H](CCc1ccccc1)c1nc(Cn2nnc3ccccc32)n[nH]1 [Compound 124, 3-Diethylamino-propane-1-sulfonic acid [(R)-1-(5-benzotriazol-1-ylmethyl-2H-[1,2,4]triazol-3-yl)-3-phenyl-propyl]-amide] | > 7.00
9 | CCN(CC)CCCS(=O)(=O)N[C@H](CCc1ccccc1)c1nc(-c2ccc(OC)c(C#N)c2)n[nH]1 [Compound 125, 3-Diethylamino-propane-1-sulfonic acid {(R)-1-[5-(3-cyano-4-methoxy-phenyl)-2H-[1,2,4]triazol-3-yl]-3-phenyl-propyl}-amide] | > 7.00
10 | CCN(CC)CCCS(=O)(=O)N[C@H](CCc1ccccc1)c1nc(-c2ccc(C#N)c(Cl)c2)n[nH]1 [Compound 126, 3-Diethylamino-propane-1-sulfonic acid {(R)-1-[5-(3-chloro-4-cyano-phenyl)-2H-[1,2,4]triazol-3-yl]-3-phenyl-propyl}-amide] | > 7.00
11 | CCN(CC)CCCS(=O)(=O)N[C@H](CCc1ccccc1)c1nc(Cc2c[nH]c3ccccc23)n[nH]1 [Compound 127, 3-Diethylamino-propane-1-sulfonic acid {(R)-1-[5-(1H-indol-3-ylmethyl)-2H-[1,2,4]triazol-3-yl]-3phenyl-propyl}-amide] | > 7.00
12 | CCN(CC)CCCS(=O)(=O)N[C@H](CCc1ccccc1)c1nc(-c2ccc(F)c(C#N)c2)n[nH]1 [Compound 128, 3-Diethylamino-propane-1-sulfonic acid {(R)-1-[5-(3-cyano-4-fluoro-phenyl)-2H-[1,2,4]triazol-3-yl]-3-phenyl-propyl}-amide] | > 7.00
13 | CCN(CC)CCCS(=O)(=O)N[C@H](CCc1ccccc1)c1nc(-c2ccc3sccc3c2)n[nH]1 [Compound 129, 3-Diethylamino-propane-1-sulfonic acid [(R)-1-(5-benzo[b]thiophen-5-yl-2H-[1,2,4]triazol-3-yl)-3-phenyl-propyl]-amide] | > 7.00

Continued, values first:

Row | pKi | SMILES
14 | > 7.00 | CCN(CC)CCCS(=O)(=O)N[C@H](CCc1ccccc1)c1nc(-c2ccc3occc3c2)n[nH]1 [Compound 130, 3-Diethylamino-propane-1-sulfonic acid [(R)-1-(5-benzofuran-5-yl-2H-[1,2,4]triazol-3-yl)-3-phenyl-propyl]-amide]
15 | > 7.00 | CCN(CC)CCCS(=O)(=O)N[C@H](CCc1ccccc1)c1nc(-c2cn(C)cn2)n[nH]1 [Compound 131, 3-Diethylamino-propane-1-sulfonic acid {(R)-1-[5-(1-methyl-1H-imidazol-4-yl)-2H-[1,2,4]triazol-3-yl]-3-phenyl-propyl}-amide]
16 | > 7.00 | CCN(CC)CCCS(=O)(=O)N[C@H](CCc1ccccc1)c1nc(Cc2cc(F)cc(F)c2)n[nH]1 [Compound 132, 3-Diethylamino-propane-1-sulfonic acid {(R)-1-[5-(3,5-difluoro-benzyl)-2H-[1,2,4]triazol-3-yl]-3-phenyl-propyl}-amide]
17 | > 7.00 | CCN(CC)CCCS(=O)(=O)N[C@H](CCc1ccccc1)c1nc(Cc2nc(C)cs2)n[nH]1 [Compound 133, 3-Diethylamino-propane-1-sulfonic acid {(R)-1-[5-(4-methyl-3H-1lambda*4*-thiazol-2-ylmethyl)-2H-[1,2,4]triazol-3-yl]-3-phenyl-propyl}-amide]
18 | 6.30 to 7.00 | CCN(CC)CCCS(=O)(=O)N[C@H](CCc1ccccc1)c1nc(-c2ccc3nccn3c2)n[nH]1 [Compound 134, 3-Diethylamino-propane-1-sulfonic acid {(R)-1-[5-(1H-imidazo[1,2,-a]pyridin-6-yl)-2H-[1,2,4]triazol-3-yl]-3-phenyl-propyl}-amide]
19 | > 7.00 | CCN(CC)CCCS(=O)(=O)N[C@H](CCc1ccccc1)c1nc(-c2cncn2C)n[nH]1 [Compound 135]
20 | > 7.00 | CCN(CC)CCCS(=O)(=O)N[C@H](CCc1ccccc1)c1nc(C2CNc3ccccc3O2)n[nH]1 (stereo partly drawn) [Compound 136, 3-Diethylamino-propane-1-sulfonic acid {(R)-1-[5-(3,4-dihydro-2H-benzo[1,4]oxazin-2-yl)-2H-[1,2,4]triazol-3-yl]-3-phenyl-propyl}-amide]
21 | > 7.00 | CCN(CC)CCCS(=O)(=O)N[C@H](CCc1ccccc1)c1nc(-c2csc(C)n2)n[nH]1 [Compound 137, 3-Diethylamino-propane-1-sulfonic acid {(R)-1-[5-(2-methyl-thiazol-4-yl)-2H-[1,2,4]triazol-3-yl]-3-phenyl-propyl}-amide]
22 | > 7.00 | CCN(CC)CCCS(=O)(=O)N[C@H](CCc1ccccc1)c1nc(-c2ccc(OC)nc2)n[nH]1 [Compound 138, 3-Diethylamino-propane-1-sulfonic acid {(R)-1-[5-(6-methoxy-pyridin-3-yl)-2H-[1,2,4]triazol-3-yl]-3-phenyl-propyl}-amide]
23 | > 7.00 | CCN(CC)CCCS(=O)(=O)N[C@H](CCc1ccccc1)c1nc(C2CCCCC2)n[nH]1 [Compound 139, 3-Diethylamino-propane-1-sulfonic acid [(R)-1-(5-cyclohexyl-2H-[1,2,4]triazol-3-yl)-3-phenyl-propyl]-amide]
